What was measured:
[1] = test system: small cell lung cancer (SCLC); experiment: TH-302 monotherapy in patients with lung cancer (SCLC); assay type: in vivo, human
Procedure: Eight subjects with SCLC have been treated with TH-302 monotherapy at initial doses of 480 mg/m^2 to 670 mg/m^2 as part of a 3 consecutive week dosing regimen repeated every 4 weeks (this excludes one subject dosed at 60 mg/m^2 during the initial dose escalation). RECIST tumor assessments were performed initially for seven subjects. […] One of the seven subjects continued on-study for additional cycles of treatment.
In this study, a person suffering from a lung cancer (a refractory small cell lung cancer) that had metastasized to liver was treated as follows. Lyophilized TH-302 was diluted with D5W and administered to the patient at an amount of 480 mg/m^2, according to the following 4 week dosing cycle: TH-302 was administered once every week for 3 weeks, on days 1, 8, and 15, followed by a week of no TH-302 administration. The patient was administered 2 cycles (i.e. 6 doses) of TH-302, and the lung and liver cancers assessed by a computed tomography (or CT) scan. […] LDH had decreased 72%, and liver function tests had normalized.

[2] = test system: PC-3 human prostate cancer cells; experiment: PC-3 ectopic xenograft, TH-302/docetaxel dosing schedules; assay type: in vivo, nude mice; conditions: single agent, TH-302 150 mg/kg ip once or Docetaxol 10 mg/kg iv once
[3] = test system: H460 NSCLC cells; experiment: H460 ectopic xenograft, TH-302/pemetrexed dosing schedules; assay type: in vivo, nude mice; conditions: single agent, TH-302 100 mg/kg ip Q7Dx2 or PMX 150 mg/kg ip Q7Dx2
Procedure: (§1) Anti-tumor activity was evaluated by tumor growth delay (TGD) and tumor growth inhibition (TGI). Body weight change, gross and microscopic assessment of tissue changes, and hematologic assays served for toxicity assessment. Testing in these models was conducted generally as follows. 1×10^6 (H460 human non-small cell lung cancer or HT1080 human fibrosarcoma cells) or 3×10^6 (PC-3 human prostate cancer cells) were implanted in the subcutaneous space of the right flank to obtain ectopic xenograft models. Randomization and dosing was initiated when tumors reached a certain size (100-150 mm^3). API grade of TH-302 was used in all experiments while docetaxel, gemcitabine, cisplatin, pemetrexed, and doxorubicin were purchased from commercial sources.
(§2) The H460 cells were prepared in 30% Matrigel and 70%. RPMI1640. Mice were anesthetized by isoflurane and were implanted subcutaneously with 1×10^6 cells (in 200 μl) at the flank position. We selected 110 mice bearing similar size tumors (˜100 mm^3) for the study. Mice bearing similar tumor size were randomly assigned into different groups. Treatment started on day 1 (7 days after tumor implantation) except as noted. TH-302 was administered intraperitoneally (IP) at 150 mg/kg, and docetaxel was administered intravenously (IV) at 10 mg/kg. Animals were observed daily and tumor measurements and body weights recorded twice weekly.
In a study conducted substantially as described above except the cells implanted were H460 NSCLC cells and 1×10^6 cells were implanted and mice were randomized into separate groups when their tumors reached ˜100 mm^3 and the chemotherapeutic employed was pemetrexed at a dose of 150 mg/kg given once a week (Q7D) for two weeks IP and the TH-302 was given at 100 mg/kg given once a week (Q7D) for two weeks IP. […]

[4] = test system: HT1080 human fibrosarcoma cells; experiment: HT1080 ectopic xenograft, TH-302/doxorubicin dosing schedules; assay type: in vivo, nude mice; conditions: single agent, TH-302 100 mg/kg ip 1/wkx2wks or Dox 4 mg/kg iv 1/wkx2wks
Procedure: as §1, §2
In a study conducted substantially as described above except the cells implanted were HT1080 human fibrosarcoma cells and 1×10^6 cells were implanted and mice were randomized into separate groups when their […]

[5] = test system: H460 NSCLC; experiment: H460 ectopic lung cancer model, TH-302 with pemetrexed; assay type: in vivo, nude mice; conditions: PMX 150 mg/kg 1/wkx2wks IP; TH-302 50 mg/kg 5/wkx2wks IP; alone or combined
Procedure: (§3) Anti-tumor activity was evaluated by tumor growth inhibition (TGI) and tumor growth delay (TGD). Body weight change, gross and microscopic assessment of tissue changes, and hematologic assays served for toxicity assessment.
(§4) Testing in these models was conducted generally as follows. 1×10^6 H460 human non-small cell lung cancer or HT1080 human fibrosarcoma cells were implanted in the subcutaneous space of the right flank to obtain ectopic xenograft models. For the orthotopic pancreatic model, red-fluorescent protein (RFP) expressing MIA PaCa2 tumors were surgically implanted on the surface of the pancreas. The prostate metastatic model was created by the intraventricular injection of 3×10^6 luciferase-expressing PC-3 cells. […] API grade of TH-302 was used in all experiments while docetaxel, gemcitabine, doxorubicin and pemetrexed were purchased from commercial sources.

[6] = test system: H460 NSCLC; experiment: H460 ectopic tumor model, TH-302 with carboplatin; assay type: in vivo, nude mice
Procedure: as §3, §4
Inhibition of tumor growth after administration of TH-302 and carboplatin was greater than for either drug individually in an ectopic tumor model using H460 cells.

[7] = test system: HT29 colon cancer; experiment: HT-29 ectopic tumor model, TH-302 with 5FU; assay type: in vivo, nude mice
[8] = 480-670 mg/m^2, weekly x3 every 4 weeks, seven subjects assessed
[9] = one refractory SCLC patient, 480 mg/m^2, 2 cycles
[10] = Carboplatin 20 mg/kg IV Q7Dx2, TH-302 100 mg/kg IP Q7Dx2, alone or combined
[11] = TH-302 150 mg/kg IP Q7Dx2, alone or + Carboplatin 20 mg/kg IV Q7Dx2
[12] = 5-FU 50 mg/kg IV Q3Dx4, TH-302 150 mg/kg IP Q7Dx3, alone or combined
[13] = TH-302 100 mg/kg IP Q3Dx5, alone or + 5-FU 50 mg/kg IV Q3Dx4

## Cn1c(COP(=O)(NCCBr)NCCBr)cnc1[N+](=O)[O-] [TH-302, (2-bromoethyl)({[(2-bromoethyl)amino][(2-nitro-3-methylimidazol-4-yl)methoxy]phosphoryl})amine]
[1]; [8]
  Partial responses (RECIST): Two of seven subjects
  Stable disease (RECIST): three of these same seven subjects
[1]; [9]
  Decrease in sum of the longest diameters [SLD] of target lesions: 44%
  LDH decrease: 72%
  Reduction in area of cancer in lung and liver: over 50%
[1]; three other patients with lung cancer (one NSCLC, 2 SCLC)
  Response: stable disease
[2]
  Days to 500 mm^3: 25 days
  T/C: 48.7%
  TGD500, Days (vs. vehicle): 9 days
  TGI: 51.3%
[2]; in mm³
  Tn (tumor volume on Day n): 559.95
[3]
  Days to 500 mm^3: 19 days
  Days to 1000 mm^3: 30 days
  T/C: 49.7%
  TGD500, Days (vs. vehicle): 7 days
  TGD1000, Days (vs. vehicle): 9 days
  TGI: 50.3%
  Tn (tumor volume on Day n): 598.34
[4]
  Days to 500 mm^3: 22 days
  T/C: 25.3%
  TGD500, Days (vs. vehicle): 10 days
  TGI: 74.7%
  Tn (tumor volume on Day n): 334.66
[5]
  Days to 500 mm^3: 26 days
  Days to 1000 mm^3: 34 days
  T/C: 38.4%
  TGD500, Days (vs. vehicle): 12 days
  TGD1000, Days (vs. vehicle): 10 days
  TGI: 61.6%
  Tn (tumor volume on Day n): 507.13
[6]; [10]
  Days to 500 mm^3: 13.5 days
  T/C: 56.1%
  TGD500, Days (vs. vehicle): 4 days
  TGI: 43.9%
  Tn (tumor volume on Day n): 706.0
[6]; [11]
  Days to 500 mm^3: 14.5 days
  T/C: 50.3%
  TGD500, Days (vs. vehicle): 5 days
  TGI: 49.7%
  Tn (tumor volume on Day n): 641.6
[7]; [12]
  Days to 500 mm^3: 28 days
  Days to 1000 mm^3: 46 days
  T/C: 48.4%
  TGD500, Days (vs. vehicle): 6 days
  TGD1000, Days (vs. vehicle): 14 days
  TGI: 51.6%
  Tn (tumor volume on Day n): 565.70
[7]; [13]
  Days to 500 mm^3: 29 days
  Days to 1000 mm^3: 41 days
  T/C: 52.0%
  TGD500, Days (vs. vehicle): 7 days
  TGD1000, Days (vs. vehicle): 9 days
  TGI: 48.0%
  Tn (tumor volume on Day n): 580.55

Source: US8946275B2, “Treatment of cancer using hypoxia activated prodrugs” (Threshold Pharmaceuticals, Inc., priority 2008, dated 2015)
